Data from patent publication US20200015481A1, “SYNERGISTIC WEED CONTROL FROM APPLICATIONS OF PYRIDINE CARBOXYLIC ACID HERBICIDES AND PHOTOSYSTEM II INHIBITORS” (Dow AgroSciences, LLC, priority 2014, published 2020).

Key:
[1] = system: ivy-leaved speedwell (VERHE, Veronica hederifolia); experiment: Postemergence herbicidal activity, greenhouse (Example 3); assay type: in vivo
Description: (§1) Compound 1 was formulated as an EC and combined with bentazon, isoproturon, metribuzin and atrazine.

[2] = system: wild pansy (VIOTR, Viola tricolor); experiment: as above; assay type: in vivo
Description: as §1

[3] = system: pigweed (Amaranthus retroflexus, AMARE); experiment: as above; assay type: in vivo
Description: as §1

[4] = system: poinsettia (Euphorbia heterophylla, EPHHL); experiment: as above; assay type: in vivo
Description: as §1

corn (ZEAMX) = experiment: Postemergence crop phytotoxicity, greenhouse (Example 3); assay type: in vivo, Zea mays; conditions: 20-22 d
Description: as §1

winter wheat (TRZAW) [5] = experiment: as above; assay type: in vivo, Triticum aestivum; conditions: 20-22 d
Description: as §1

[6] = system: nutsedge (Cyperus esculentus, CYPES); experiment: Postemergence herbicidal activity, greenhouse (Example 3); assay type: in vivo
Description: as §1

[7] = system: velvetleaf (Abutilon theophrasti, ABUTH); experiment: as above; assay type: in vivo
Description: as §1

[8] = system: large crabgrass (Digitaria sanguinalis, DIGSA); experiment: as above; assay type: in vivo
Description: as §1

[9] = system: thistle (Cirsium arvense, CIRAR); experiment: as above; assay type: in vivo
Description: as §1

[10] = system: rape (Brassica napus, BRSNN); experiment: as above; assay type: in vivo
Description: as §1

[11] = system: barnyardgrass (Echinochloa crus-galli, ECHCG); experiment: as above; assay type: in vivo
Description: as §1

[12] = system: pigweed (AMARE, Amaranthus retroflexus); experiment: Postemergence herbicidal activity, greenhouse (Example 1); conditions: 20-22 d
[13] = system: nutsedge (Cyperus esculentus, CYPES); experiment: Postemergence herbicidal activity, greenhouse (Example 2); assay type: in vivo; conditions: 20-22 d
Protocol: (§2) Stocks solutions of the compound mixtures were prepared following the same procedure.

[14] = system: pigweed (AMARE, Amaranthus retroflexus); experiment: as above; assay type: in vivo; conditions: 20-22 d
Protocol: as §2

[15] = system: ivyleaf morningglory (Ipomoea hederacea, IPOHE); experiment: as above; assay type: in vivo; conditions: 20-22 d
Protocol: as §2

[16] = system: poinsettia (Euphorbia heterophylla, EPHHL); experiment: as above; assay type: in vivo; conditions: 20-22 d
Protocol: as §2

winter wheat (TRZAW) [17] = experiment: Postemergence crop phytotoxicity, greenhouse (Example 2)
Protocol: as §2

maize (ZEAMX) = experiment: as above
Protocol: as §2

winter wheat (TRZAW) [18] = experiment: Postemergence crop phytotoxicity, greenhouse (Example 1); conditions: 20-22 d
[19] = system: thistle (CIRAR, Cirsium arvense); experiment: Postemergence herbicidal activity, greenhouse (Example 1); conditions: 20-22 d
spring barley (HORVS) = experiment: Postemergence crop phytotoxicity, greenhouse (Example 1); conditions: Bromoxynil 70 g ai/ha, 20-22 d
rice (ORYSA) = experiment: Postemergence crop phytotoxicity, greenhouse (Example 3); assay type: in vivo, Oryza sativa
Description: as §1

[20] = system: common sunflower (Helianthus annuus, HELAN); experiment: Postemergence herbicidal activity, greenhouse (Example 3); assay type: in vivo
Description: as §1

[21] = Compound 1 5 g ae/ha, 20-22 d (Tables 4-6)
[22] = Compound 1 5 g ae/ha, 20-22 d (Table 7)
[23] = Isoproturon 150 g ai/ha, 20-22 d

CCNc1nc(Cl)nc(NC(C)C)n1 [Atrazine]
Effect (% visual injury) Obs ([1]; Atrazine 450 g ai/ha, 20-22 d): 45% | Effect (% visual injury) Obs ([2]; Atrazine 450 g ai/ha, 20-22 d): 5% | Effect (% visual injury) Obs ([3]; Atrazine 450 g ai/ha, 20-22 d): 50% | Effect (% visual injury) Obs ([4]; Atrazine 450 g ai/ha, 20-22 d): 0%

CC(C)N1C(=O)c2ccccc2NS1(=O)=O [Bentazon]
Effect (% visual injury) Obs (corn (ZEAMX); Bentazon 60 g ai/ha): 0% | Effect (% visual injury) Obs (winter wheat (TRZAW) [5]; Bentazon 60 g ai/ha): 0% | Effect (% visual injury) Obs ([6]; Bentazon 60 g ai/ha, 20-22 d): 0% | Effect (% visual injury) Obs ([7]; Bentazon 60 g ai/ha, 20-22 d): 0% | Effect (% visual injury) Obs ([8]; Bentazon 60 g ai/ha, 20-22 d): 0% | Effect (% visual injury) Obs ([9]; Bentazon 60 g ai/ha, 20-22 d): 0% | Effect (% visual injury) Obs ([10]; Bentazon 60 g ai/ha, 20-22 d): 20% | Effect (% visual injury) Obs ([3]; Bentazon 60 g ai/ha, 20-22 d): 10% | Effect (% visual injury) Obs ([4]; Bentazon 60 g ai/ha, 20-22 d): 0% | Effect (% visual injury) Obs ([11]; Bentazon 60 g ai/ha, 20-22 d): 0%

N#Cc1cc(Br)c(O)c(Br)c1 [Bromoxynil]
Effect (% visual injury) Obs ([12]; Bromoxynil 140 g ai/ha): 0% | Effect (% visual injury) Obs ([13]; Bromoxynil 70 g ai/ha): 0% | Effect (% visual injury) Obs ([14]; Bromoxynil 70 g ai/ha): 20% | Effect (% visual injury) Obs ([15]; Bromoxynil 70 g ai/ha): 25% | Effect (% visual injury) Obs ([16]; Bromoxynil 70 g ai/ha): 5% | Effect (% visual injury) Obs (winter wheat (TRZAW) [17]; TRZAW, Bromoxynil 70 g ai/ha, postemergence, 20-22 d): 0% | Effect (% visual injury) Obs (maize (ZEAMX); ZEAMX, Bromoxynil 70 g ai/ha, postemergence, 20-22 d): 0% | Effect (% visual injury) Obs (winter wheat (TRZAW) [18]; Bromoxynil 70 g ai/ha): 0% | Effect (% visual injury) Obs (winter wheat (TRZAW) [18]; Bromoxynil 140 g ai/ha): 0% | Effect (% visual injury) Obs ([19]; Bromoxynil 70 g ai/ha): 40% | Effect (% visual injury) Obs (spring barley (HORVS)): 0%

Nc1c(F)c(-c2ccc3cc[nH]c3c2F)nc(C(=O)O)c1Cl [Compound 1]
Effect (% visual injury) Obs (rice (ORYSA); Oryza sativa (rice), in vivo): 0% | Effect (% visual injury) Obs [6, 21]: 10% | Effect (% visual injury) Obs [1, 22]: 40% | Effect (% visual injury) Obs [7, 21]: 10% | Effect (% visual injury) Obs [8, 21]: 0% | Effect (% visual injury) Obs [9, 21]: 20% | Effect (% visual injury) Obs [10, 21]: 50% | Effect (% visual injury) Obs [2, 22]: 5% | Effect (% visual injury) Obs [2, 21]: 10% | Effect (% visual injury) Obs [3, 22]: 65% | Effect (% visual injury) Obs [3, 21]: 93% | Effect (% visual injury) Obs [4, 22]: 97% | Effect (% visual injury) Obs [4, 21]: 97% | Effect (% visual injury) Obs [11, 21]: 60% | Effect (% visual injury) Obs [20, 21]: 97%

Nc1c(F)c(-c2ccc3cc[nH]c3c2F)nc(C(=O)OCc2ccccc2)c1Cl [Compound 2]
Effect (% visual injury) Obs ([13]; Compound 2 5 g ae/ha): 5% | Effect (% visual injury) Obs ([13]; Compound 2 10 g ae/ha): 10% | Effect (% visual injury) Obs ([14]; Compound 2 5 g ae/ha): 88% | Effect (% visual injury) Obs ([14]; Compound 2 10 g ae/ha): 100% | Effect (% visual injury) Obs ([15]; Compound 2 5 g ae/ha): 10% | Effect (% visual injury) Obs ([15]; Compound 2 10 g ae/ha): 20% | Effect (% visual injury) Obs ([16]; Compound 2 5 g ae/ha): 35% | Effect (% visual injury) Obs ([16]; Compound 2 10 g ae/ha): 75% | Effect (% visual injury) Obs (winter wheat (TRZAW) [17]; Triticum aestivum (winter wheat), in vivo): 3% | Effect (% visual injury) Obs (maize (ZEAMX); Zea mays (maize), in vivo): 3%

Nc1c(F)c(-c2ccc3cc[nH]c3c2F)nc(C(=O)[O-])c1Cl.[K+] [Compound 7]
Effect (% visual injury) Obs ([12]; Compound 7 8.75 g ae/ha): 70% | Effect (% visual injury) Obs ([19]; Compound 7 5 g ae/ha): 50% | Effect (% visual injury) Obs ([19]; Compound 7 10 g ae/ha): 65%

CC(C)c1ccc(NC(=O)N(C)C)cc1 [Isoproturon]
Effect (% visual injury) Obs [6, 23]: 0% | Effect (% visual injury) Obs [9, 23]: 10% | Effect (% visual injury) Obs [10, 23]: 0% | Effect (% visual injury) Obs [2, 23]: 0% | Effect (% visual injury) Obs [11, 23]: 0% | Effect (% visual injury) Obs [20, 23]: 0%

CSc1nnc(C(C)(C)C)c(=O)n1N [Metribuzin]
Effect (% visual injury) Obs (corn (ZEAMX); Metribuzin 25 g ai/ha): 0% | Effect (% visual injury) Obs (winter wheat (TRZAW) [5]; Metribuzin 25 g ai/ha): 0% | Effect (% visual injury) Obs (rice (ORYSA); ORYSA, Metribuzin 25 g ai/ha, postemergence, 20-22 d): 0% | Effect (% visual injury) Obs ([6]; Metribuzin 25 g ai/ha, 20-22 d): 0% | Effect (% visual injury) Obs ([9]; Metribuzin 25 g ai/ha, 20-22 d): 10% | Effect (% visual injury) Obs ([10]; Metribuzin 25 g ai/ha, 20-22 d): 0% | Effect (% visual injury) Obs ([3]; Metribuzin 25 g ai/ha, 20-22 d): 10% | Effect (% visual injury) Obs ([4]; Metribuzin 25 g ai/ha, 20-22 d): 0% | Effect (% visual injury) Obs ([11]; Metribuzin 25 g ai/ha, 20-22 d): 0%
